Literature values, collected in patent US9155796B2, “Hydrogels with covalently linked polypeptides” (SUSAVION BIOSCIENCES, INC., priority 2012, dated 2015).

System: peripheral blood mononuclear cells (PBMCs)
Details: PBMC cultures; within 4 hours

Substance | increased PDGF secretion
(NQHTPR-PEG2-)4-Lys2-Lys-PEG2-Cys[—CH2CH(Me): CH2]—NH2 (not fully specified; tetravalent Lys dendrimer, PEG2 linkers, modified Cys amide; Therapeutic peptide) [SV6D] | two- to four-fold
(VQATQS-PEG2-)4-Lys2-Lys-PEG2-Cys[—CH2CH(Me): CH2]—NH2 (not fully specified; tetravalent Lys dendrimer, PEG2 linkers, modified Cys amide; Therapeutic peptide) [SVC1] | two- to four-fold
(VSNQH-PEG2-)4-Lys2-Lys-PEG2-Cys[—CH2CH(Me): CH2]—NH2 (not fully specified; tetravalent Lys dendrimer, PEG2 linkers, modified Cys amide; Therapeutic peptide) [SVD2] | two- to four-fold
(WNSTL-PEG2-)4-Lys2-Lys-PEG2-Cys[CH2CH(Me): CH2]—NH2 (not fully specified; tetravalent Lys dendrimer, PEG2 linkers, modified Cys amide; Therapeutic peptide) [SVH1B] | two- to four-fold
